Entries after “also recorded” stand apart in the source; their conditions may differ.
Tests used:
[1] = test system: NASH mice; test: F4/80 immunostaining of liver, inflammation area % (Test Example 3); format: in vivo; settings: for Inflammation area %, Significant difference: Bonferroni, 5% level, tendency at 10% level; for Inflammation area % (F4/80 immunostaining), mean ± standard deviation: 8 weeks of age
Excerpt: A solid diet CE-2 (lipid 4.6% by weight, manufactured by CLEA Japan, Inc.) was used as a normal diet. A solid diet, High Fat Diet 32 (lipid 32.0% by weight, sucrose 6.75% by weight, manufactured by CLEA Japan, Inc.), was used as a sucrose-containing high fat diet. As a maltitol-containing high-fat diet, a special diet (lipid 32.0% by weight, maltitol 6.08% by weight; manufactured by CLEA Japan, Inc.) obtained by replacing the total amount (6.75% by weight) of sucrose in a solid diet, High Fat Diet 32, with powdered maltitol (Whole Crystalline Maltitol Ueno 60M (purity of maltitol: 90%), manufactured by Ueno Fine Chemicals Industry Ltd.) was used. Sodium hypochlorite (PURELOX-S, manufactured by OYALOX Co., Ltd.) was added to pure water prepared by Elix-UV pure water producing apparatus, to a final concentration of 0.00009%, so that pure water for use in the test was obtained. An aqueous maltitol solution was prepared by dissolving powdered maltitol (Whole Crystalline Maltitol Ueno 60M (purity of maltitol: 90%), manufactured by Ueno Fine Chemicals Industry Ltd.) in pure water to a concentration of 1.8% (weight/volume). The purity of maltitol in the aqueous maltitol solution was 1.62%. Twenty-one female SPF mice (C57BL/6J, produced by CLEA Japan, Inc.) on day 14 of pregnancy were purchased and acclimation was performed. All animals were allowed to make a natural birth and a born male was used to produce a model. In addition, the weaning was at 4 weeks after birth. Streptozotocin (Sigma-Aldrich Japan K.K.) was adjusted to a concentration of 10 mg/mL with a physiological saline solution (manufactured by Otsuka Pharmaceutical Factory, Inc.) and the solution was subcutaneously administered once to the back of 2-day-old male mice at a dose of 20 μL/mouse (200 μg/mouse). Afterwards, the mother animal took care of the baby until weaning. The weaning was on day 28±2 after birth. After the weaning, a normal diet was supplied ad libitum to animals receiving no streptozotocin (normal mice (group S1 and group 1)), and a sucrose-containing high fat diet was supplied ad libitum to animals receiving streptozotocin (NASH mice (group S2, group 2, group 3, and group 4). A normal diet was supplied ad libitum to normal mice (group 1). With respect to NASH mice, a sucrose-containing high fat diet was supplied ad libitum to the sucrose group (group 2), and a maltitol-containing high fat diet was supplied ad libitum to the maltitol-low dose group (group 3) and the maltitol-high dose group (group 4). An aqueous maltitol solution was supplied ad libitum only to the maltitol-high dose group (group 4) of 5 to 8 weeks of age, and pure water was supplied ad libitum to the groups other than group 4 of 5 to 8 weeks of age. Six male animals per group were assigned to groups S1 and S2, reared up to 5 weeks of age, and then necropsied. Eight male animals per group were assigned to groups 1, 2, 3 and 4, reared up to 8 weeks of age, and then necropsied. At scheduled necropsy of the animals of 5 or 8 weeks of age, all individuals were anesthetized with diethyl ether (manufactured by Sigma-Aldrich Japan K.K.) and a needle through which heparin sodium (Novo Heparin Injection 1000, manufactured by Mochida Pharmaceutical Co., Ltd.) had been passed was punctured to the heart to aspirate the whole blood, leading to euthanasia, followed by harvest of the organ. […]

[2] = test system: C57BL/6 male mice fed high fat diet; test: Blood ketone bodies value after 8-week feeding (Test Example 1); format: in vivo; design: key to Blood ketone bodies value, Significant difference: *: a significant difference was observed at 1% level of significance relative to group 3; settings: for Blood ketone bodies value (Mean ± Standard error): 8 weeks
Excerpt: Eight-week-old C57BL/6 male mice (CLEA Japan, Inc.) were divided at random into groups (each group: four animals) and then used. As a normal diet, solid diet MF (lipid component 5.3%, manufactured by Oriental Yeast Co., Ltd.) was used. As a high-fat diet, solid diet High Fat Diet 32 (lipid component 32.0%, manufactured by CLEA Japan, Inc.) was used. As a sample water, 2.5% by weight of aqueous sucrose solution, 2.25% by weight of aqueous maltitol solution, and 4.5% by weight of aqueous maltitol solution obtained by respectively dissolving, as a test substance, sucrose (manufactured by Wako Pure Chemical Industries, Ltd.) and maltitol (Whole Crystalline Maltitol Ueno 60M, having maltitol purity of 90%, manufactured by Ueno Fine Chemicals Industry, Ltd.) in distilled water were used. Distilled water was used as a negative sample. The sample water was administered by making it available ad libitum and the amount of sample water intake was recorded. The dose of sucrose per day calculated from the concentration of the sample water and the water intake was 3 g per 1 kg of body weight. The dose of maltitol per day calculated in the same manner as above was 2.7 g per 1 kg of body weight in mice receiving 2.25% aqueous maltitol solution, and 4.5 g per 1 kg of body weight in mice receiving 4.5% aqueous maltitol solution. The diet and the sample water (test substance aqueous solution or distilled water) listed in Table 1 were administered to mice in each group, and the animals were fed for 8 weeks. After 8-week test feeding, pentobarbital of 0.5 mg/10 g of body weight was intraperitoneally administered to mice, and blood was collected from the tail vein under deep anesthesia. Further, by using Precision Xceed β-Ketone Measuring Electrode (manufactured by Abbott Japan Co., Ltd.), ketone bodies value in blood, which is an indicator of fat burning in the liver, was measured. A significant difference test by the t-test method was performed on blood AST values, blood ALT values, and blood ketone bodies values were evaluated by performing significant difference tests on these values via t-test.

With `OC[C@@H](O)[C@@H](O[C@H]1O[C@H](CO)[C@@H](O)[C@H](O)[C@H]1O)[C@H](O)[C@@H](O)CO` [maltitol] the “Inflammation area %, Significant difference” value ([1]; Group 3 (low-dose maltitol) vs sucrose group (group 2)) was “No significant difference and No”, the “Inflammation area % (F4/80 immunostaining), mean ± standard deviation” value (shortened to “Inflammation area % … mean ± standard deviation”) ([1]; Group 3, low-dose maltitol: HFD32-M (maltitol 6.08%) + pure water) was 3.04 ± 1.55% and the “Inflammation area %, Significant difference” value ([1]; Group 4 (high-dose maltitol) vs sucrose group (group 2)) was “tendency to be low; also recorded: Tendency to be different”. The “Inflammation area % … mean ± standard deviation” value ([1]; Group 4, high-dose maltitol: HFD32-M (maltitol 6.08%) + aqueous maltitol solution 1.62%) was 2.46 ± 0.44%, the “Blood ketone bodies value, change in words” value ([2]; Group 4 (2.25% aqueous maltitol solution) in comparison with group 3 (sucrose)) was “significant improvement effect” and the “Blood ketone bodies value, Significant difference” value ([2]; Group 4 (2.25% aqueous maltitol solution) relative to group 3 (sucrose), t-test) was “*”. For the same compound, the “Blood ketone bodies value (Mean ± Standard error)” value ([2]; Group 4: high fat diet + 2.25% aqueous maltitol solution) was 0.20 ± 0.04 mmol/L, the “Blood ketone bodies value, change in words” value ([2]; Group 5 (4.5% aqueous maltitol solution) relative to group 3 (sucrose)) was “increased” and the “Blood ketone bodies value (Mean ± Standard error)” value ([2]; Group 5: high fat diet + 4.5% aqueous maltitol solution) was 0.18 ± 0.05 mmol/L.
With `OC[C@H]1O[C@@](CO)(O[C@H]2O[C@H](CO)[C@@H](O)[C@H](O)[C@H]2O)[C@@H](O)[C@@H]1O` [sucrose, reference compound] the “Inflammation area % … mean ± standard deviation” value ([1]; Group 2, sucrose group: HFD32 (sucrose 6.75%) + pure water) was 3.28 ± 0.95% and the “Blood ketone bodies value (Mean ± Standard error)” value ([2]; Group 3: high fat diet + 2.5% aqueous sucrose solution) was 0.08 ± 0.03 mmol/L.

From US9155752B2, “Liver function-improving agent” (UENO FINE CHEMICALS INDUSTRY, LTD., priority 2012, dated 2015)
